Assays:
[1] = target: Human serotonin 5-HT6 receptor (Homo sapiens, UniProt P50406); test: [3H]LSD binding assay on cloned 5-HT6 receptor; details: IC50 (nM)
5-HT1a = target: T1, 5-HT1a (Homo sapiens, UniProt P08908); test: Radioligand binding, 5-HT receptor family: 5-HT1a ([3H]8-OH-DPAT); details: CHO-K1 human recombinant receptor, [3H]8-OH-DPAT 0.5 nM; read-out: Binding affinity, IC50 (nM), 5-HT1a
T1 construct: purchased Euroscreen/BioSignal Packard Inc
T1 sequence (P08908 1-422): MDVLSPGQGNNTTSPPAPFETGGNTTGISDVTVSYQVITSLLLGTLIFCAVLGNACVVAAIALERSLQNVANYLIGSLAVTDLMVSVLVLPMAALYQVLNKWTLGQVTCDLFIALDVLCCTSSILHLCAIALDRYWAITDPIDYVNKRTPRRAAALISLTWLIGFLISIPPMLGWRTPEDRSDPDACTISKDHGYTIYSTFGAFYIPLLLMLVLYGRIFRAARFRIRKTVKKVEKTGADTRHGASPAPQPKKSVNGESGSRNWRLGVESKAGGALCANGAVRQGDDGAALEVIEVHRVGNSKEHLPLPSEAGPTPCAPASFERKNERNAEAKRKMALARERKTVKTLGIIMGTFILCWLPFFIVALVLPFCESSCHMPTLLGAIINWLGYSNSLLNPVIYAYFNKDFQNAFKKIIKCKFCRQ

5-HT2a = target: T2, 5-HT2a (Homo sapiens, UniProt P28223); test: Radioligand binding, 5-HT receptor family: 5-HT2a ([3H]Ketanserin); details: CHO-K1 human recombinant receptor, [3H]Ketanserin 1 nM; read-out: Binding affinity, IC50 (nM), 5-HT2a
T2 construct: purchased Euroscreen/BioSignal Packard Inc

5-HT2c = target: T3, 5-HT2c (Homo sapiens, UniProt P28335); test: Radioligand binding, 5-HT receptor family: 5-HT2c ([3H]Mesulergine); details: CHO-K1 human recombinant receptor, [3H]Mesulergine 1 nM; read-out: Binding affinity, IC50 (nM), 5-HT2c
T3 construct: purchased Euroscreen/BioSignal Packard Inc
T3 sequence (P28335 33-458): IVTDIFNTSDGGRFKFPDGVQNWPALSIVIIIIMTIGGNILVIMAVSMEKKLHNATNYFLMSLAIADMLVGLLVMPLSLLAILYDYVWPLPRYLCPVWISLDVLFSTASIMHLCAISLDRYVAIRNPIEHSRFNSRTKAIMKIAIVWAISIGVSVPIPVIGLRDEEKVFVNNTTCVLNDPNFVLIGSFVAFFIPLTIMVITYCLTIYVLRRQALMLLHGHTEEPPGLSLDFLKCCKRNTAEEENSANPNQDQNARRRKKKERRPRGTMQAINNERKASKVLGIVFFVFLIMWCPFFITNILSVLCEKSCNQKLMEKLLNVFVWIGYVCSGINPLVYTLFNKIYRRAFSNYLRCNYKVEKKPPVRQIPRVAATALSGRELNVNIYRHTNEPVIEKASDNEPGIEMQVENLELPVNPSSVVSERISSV

hD4.2 receptor = target: T4, hD4.2 receptor (Homo sapiens, UniProt P21917, DEL265-296); test: Dopamine receptor family binding: D4 ([3H]YM-09151-2); details: [3H]YM-09151-2 0.06 nM; read-out: Binding affinity, IC50 (nM), D4
T4 construct: purchased BioSignal Packard Inc., Montreal, Canada
T4 sequence (P21917 with tags, fused parts or gaps DEL265-296): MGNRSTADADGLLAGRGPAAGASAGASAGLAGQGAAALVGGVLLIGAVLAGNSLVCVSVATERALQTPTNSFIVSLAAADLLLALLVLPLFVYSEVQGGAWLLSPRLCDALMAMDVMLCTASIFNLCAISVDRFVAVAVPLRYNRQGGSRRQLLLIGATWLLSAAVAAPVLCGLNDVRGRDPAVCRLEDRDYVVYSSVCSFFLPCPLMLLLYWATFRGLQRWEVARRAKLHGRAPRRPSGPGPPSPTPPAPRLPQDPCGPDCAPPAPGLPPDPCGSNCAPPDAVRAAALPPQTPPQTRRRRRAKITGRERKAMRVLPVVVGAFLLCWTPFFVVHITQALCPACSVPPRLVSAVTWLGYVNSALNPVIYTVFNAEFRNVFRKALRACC
Procedure: (§1) 2-2: Binding Assays of Dopamine Receptor Family
(§2) The radioligands used were [^3H]spiperone (for hD2L and hD3 receptors, 1 nM) and [^3H] YM-09151-2 (for hD4.2 receptor, 0.06 nM). Radioligand bindings were performed by the protocols provided by the supplier of receptor membranes (BioSignal Packard Inc., Montreal, Canada). Briefly, the buffer used in D2 or D3 receptor binding assay was 50 mM Tris-HCl (pH 7.4), 10 mM MgCl2, 1 mM EDTA, or 50 mM Tris-HCl (pH 7.4), 5 mM MgCl2 5 mM EDTA, 5 mM KCl, 1.5 mM CaCl2, 120 mM NaCl, respectively. In [^3H] YM-09151-2 receptor binding assays, the buffer containing 50 mM Tris-HCl (pH 7.4), 5 mM MgCl2, 5 mM EDTA, 5 mM KCl and 1.5 mM CaCl2 was used. […] Competition binding studies were carried out with 7-8 concentrations of the test compound run in duplicate tubes, and isotherms from three assays were calculated by computerized nonlinear regression analysis (GraphPad Prism Program, San Diego, […]) to yield median inhibitory concentration (IC50) values.

hD3 receptor = target: T5, hD3 receptor (Homo sapiens, UniProt P35462); test: Dopamine receptor family binding: D3 ([3H]spiperone); details: [3H]spiperone 1 nM; read-out: Binding affinity, IC50 (nM), D3
T5 construct: purchased BioSignal Packard Inc., Montreal, Canada

5-HT7 = target: T6, 5-HT7 (Homo sapiens, UniProt P34969); test: Radioligand binding, 5-HT receptor family: 5-HT7 ([3H]LSD); details: CHO-K1 human recombinant receptor, [3H]LSD 3 nM; read-out: Binding affinity, IC50 (nM), 5-HT7
T6 construct: purchased Euroscreen/BioSignal Packard Inc
Procedure: Radioligand bindings were performed according to the test method provided by the supplier of receptor membrane (Euroscreen/BioSignal Packard Inc.). The detailed assay conditions and the results were shown in the following Table 3 and Table 4, respectively.

hD2L receptor = target: T7, hD2L receptor (Homo sapiens, UniProt P14416); test: Dopamine receptor family binding: D2 ([3H]spiperone); details: [3H]spiperone 1 nM; read-out: Binding affinity, IC50 (nM), D2
T7 construct: purchased BioSignal Packard Inc., Montreal, Canada
Procedure: as §1, §2

[2] = Binding affinity, 5-HT6, Table 4
[3] = binding affinity to the 5-HT6 receptor, Table 2, 1.87 nM [3H]LSD, cloned human receptor membranes from Sf21 cells, 37° C. 60 min

T5 sequence (P35462 whole entry): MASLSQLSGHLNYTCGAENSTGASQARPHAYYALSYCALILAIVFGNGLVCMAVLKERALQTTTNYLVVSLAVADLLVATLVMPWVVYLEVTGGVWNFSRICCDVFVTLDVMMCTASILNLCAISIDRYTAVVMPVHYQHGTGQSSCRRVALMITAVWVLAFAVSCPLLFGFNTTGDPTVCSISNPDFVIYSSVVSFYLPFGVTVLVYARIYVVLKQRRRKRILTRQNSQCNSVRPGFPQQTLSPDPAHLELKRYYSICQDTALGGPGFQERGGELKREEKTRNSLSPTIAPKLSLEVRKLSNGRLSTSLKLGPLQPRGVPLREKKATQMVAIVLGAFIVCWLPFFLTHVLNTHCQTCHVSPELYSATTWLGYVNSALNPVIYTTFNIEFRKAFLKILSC
Chain of Human serotonin 5-HT6 receptor (P50406 whole entry): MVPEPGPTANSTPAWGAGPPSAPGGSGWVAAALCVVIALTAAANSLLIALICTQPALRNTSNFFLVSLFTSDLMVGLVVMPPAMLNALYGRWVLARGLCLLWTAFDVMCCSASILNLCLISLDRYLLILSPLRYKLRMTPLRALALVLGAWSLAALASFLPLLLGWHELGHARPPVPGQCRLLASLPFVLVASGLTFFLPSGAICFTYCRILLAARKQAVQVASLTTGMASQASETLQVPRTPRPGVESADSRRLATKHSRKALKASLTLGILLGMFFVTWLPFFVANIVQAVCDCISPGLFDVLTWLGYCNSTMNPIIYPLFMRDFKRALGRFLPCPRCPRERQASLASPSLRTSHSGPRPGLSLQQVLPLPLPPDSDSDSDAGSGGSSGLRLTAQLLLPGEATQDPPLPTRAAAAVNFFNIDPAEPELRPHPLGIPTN
T2 sequence (P28223 whole entry): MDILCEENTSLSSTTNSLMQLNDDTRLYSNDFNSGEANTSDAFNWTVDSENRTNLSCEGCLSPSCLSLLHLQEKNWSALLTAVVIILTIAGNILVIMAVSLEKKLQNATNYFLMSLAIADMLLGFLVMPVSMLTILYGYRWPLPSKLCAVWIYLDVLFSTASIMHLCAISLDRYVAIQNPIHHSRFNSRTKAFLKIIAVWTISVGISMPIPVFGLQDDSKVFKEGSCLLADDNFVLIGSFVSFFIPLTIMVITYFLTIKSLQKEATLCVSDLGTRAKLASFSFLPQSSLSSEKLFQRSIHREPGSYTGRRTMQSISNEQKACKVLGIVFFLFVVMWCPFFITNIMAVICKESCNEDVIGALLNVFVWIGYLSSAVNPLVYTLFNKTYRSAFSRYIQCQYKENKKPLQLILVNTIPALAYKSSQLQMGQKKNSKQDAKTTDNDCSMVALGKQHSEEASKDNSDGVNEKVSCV
T6 sequence (P34969 whole entry): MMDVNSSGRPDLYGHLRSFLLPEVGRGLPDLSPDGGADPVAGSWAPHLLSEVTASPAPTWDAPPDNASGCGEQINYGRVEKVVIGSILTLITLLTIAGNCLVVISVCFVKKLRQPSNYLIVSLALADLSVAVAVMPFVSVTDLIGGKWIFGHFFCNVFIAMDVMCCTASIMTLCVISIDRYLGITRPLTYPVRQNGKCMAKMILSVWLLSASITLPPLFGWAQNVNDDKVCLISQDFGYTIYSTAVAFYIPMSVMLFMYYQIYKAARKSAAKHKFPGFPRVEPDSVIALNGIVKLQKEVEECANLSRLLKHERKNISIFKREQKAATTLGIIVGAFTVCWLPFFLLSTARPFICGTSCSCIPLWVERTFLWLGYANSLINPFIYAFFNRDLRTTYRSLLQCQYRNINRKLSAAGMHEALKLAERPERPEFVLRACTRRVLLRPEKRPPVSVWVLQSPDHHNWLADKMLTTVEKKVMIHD
T7 sequence (P14416 whole entry): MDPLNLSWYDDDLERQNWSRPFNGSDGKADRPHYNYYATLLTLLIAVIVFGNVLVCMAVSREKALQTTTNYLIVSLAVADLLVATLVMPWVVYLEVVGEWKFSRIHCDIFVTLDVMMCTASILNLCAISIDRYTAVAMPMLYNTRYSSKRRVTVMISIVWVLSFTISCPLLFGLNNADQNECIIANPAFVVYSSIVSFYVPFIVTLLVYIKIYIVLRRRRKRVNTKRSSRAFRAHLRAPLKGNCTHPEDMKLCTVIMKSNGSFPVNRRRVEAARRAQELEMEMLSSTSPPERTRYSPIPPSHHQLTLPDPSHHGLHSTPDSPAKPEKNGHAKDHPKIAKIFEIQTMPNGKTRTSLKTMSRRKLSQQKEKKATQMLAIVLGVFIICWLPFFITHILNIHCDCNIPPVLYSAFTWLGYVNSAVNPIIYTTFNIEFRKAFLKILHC

Row | Compound | IC50 [1, 2] [nM] | IC50 [1, 3] [nM] | IC50 (5-HT1a) [nM] | IC50 (5-HT2a) [nM] | melting point [°C] | IC50 (5-HT2c) [nM] | IC50 (hD4.2 receptor) [nM] | IC50 (hD3 receptor) [nM] | IC50 (5-HT7) [nM] | IC50 (hD2L receptor) [nM]
1 | CCCCCCCCN1C(=O)N(Cc2ccccc2)c2cc(Cl)cc(N3CCN(C)CC3)c2S1(=O)=O [Example 39, 4-Benzyl-6-chloro-8-(4-methyl-piperazin-1-yl)-2-octyl-1,1-dioxo-1,4-dihydro-2H-1λ^6-benzo[1,2,4]thiadiazin-3-one] | 1.8 | 1.8 | 894 | 1320 | 88 to 91 | 1050 | > 10000 | 130 | 3170 | > 10000
2 | CCCN1C(=O)N(Cc2ccccc2)c2cc(Cl)cc(N3CCN(C)CC3)c2S1(=O)=O [Example 34, 4-Benzyl-6-chloro-8-(4-methyl-piperazin-1-yl)-2-propyl-1,1-dioxo-1,4-dihydro-2H-1λ^6-benzo[1,2,4]thiadiazin-3-one] | 0.4 | 0.4 | 2390 | 436 | 91 to 93 | 203 | > 10000 | 1860 | > 10000 | > 10000
3 | CN1CCN(c2cc(Cl)cc3c2S(=O)(=O)N(Cc2cccc4ccccc24)C(=O)N3Cc2ccccc2)CC1 [Example 41, 4-Benzyl-6-chloro-8-(4-methyl-piperazin-1-yl)-2-naphthalen-1-ylmethyl-1,1-dioxo-1,4-dihydro-2H-1λ^6-benzo[1,2,4]thiadiazin-3-one] | 0.8 | 0.8 | > 10000 | 365 | 114 to 115 | 257 | > 10000 | 420 | > 10000 | > 10000
4 | CN1CCN(c2cc(Cl)cc3c2S(=O)(=O)N(Cc2cccc(F)c2)C(=O)N3Cc2ccccc2)CC1 [Example 3, 4-Benzyl-6-chloro-2-(3-fluoro-benzyl)-8-(4-methyl-piperazin-1-yl)-1,1-dioxo-1,4-dihydro-2H-1λ^6-benzo[1,2,4]thiadiazin-3-one] | 0.7 | 0.7 | 5980 | 846 | 85 to 87 | 2190 | > 10000 | 537 | > 10000 | > 10000
5 | CN1CCN(c2cc(Cl)cc3c2S(=O)(=O)N(Cc2ccccc2F)C(=O)N3Cc2ccccc2)CC1 [Example 2, 4-Benzyl-6-chloro-2-(2-fluoro-benzyl)-8-(4-methyl-piperazin-1-yl)-1,1-dioxo-1,4-dihydro-2H-1λ^6-benzo[1,2,4]thiadiazin-3-one] | 1.9 | 1.9 | 2300 | 335 | 118 to 120 | 578 | > 10000 | 390 | > 10000 | > 10000
6 | CCN1C(=O)N(Cc2ccccc2)c2cc(Cl)cc(N3CCN(C)CC3)c2S1(=O)=O [Example 33, 4-Benzyl-6-chloro-2-ethyl-8-(4-methyl-piperazin-1-yl)-1,1-dioxo-1,4-dihydro-2H-1λ^6-benzo[1,2,4]thiadiazin-3-one] | 0.3 | 0.3 | 2620 | 119 | 167 to 169 | 1240 | > 10000 | 3170 | > 10000 | > 10000
7 | CN1CCN(c2cc(Cl)cc3c2S(=O)(=O)N(Cc2ccc(Cl)cc2)C(=O)N3Cc2ccccc2)CC1 [Example 7, 4-Benzyl-6-chloro-2-(4-chloro-benzyl)-8-(4-methyl-piperazin-1-yl)-1,1-dioxo-1,4-dihydro-2H-1λ^6-benzo[1,2,4]thiadiazin-3-one] | 2.3 | 2.3 | 3910 | 488 | 99 to 100 | 1540 | > 10000 | 555 | > 10000 | > 10000

From US20100035866A1, “NOVEL SUBSTITUTED-1, 1-DIOXO-BENZO[1,2,4]THIADIAZIN-3ONES, PREPARATION METHOD THEREOF, AND PHARMACEUTICAL COMPOSITION CONTAINING THE SAME” (KOREA RESEARCH INSTITUTE OF CHEMICAL TECHNOLOGY, priority 2006, published 2010)
